Where “and” joins values, the source holds several entries; their conditions need not be identical. Equal entries are not always repeated. Strand notation (5' to 3'): a small letter for the sugar, then the base; units joined by * are phosphorothioate-linked, units joined directly phosphodiester-linked; [ ] holds rarer units or linkages, { } end groups; capitals alone tell only the bases. [ms] = mesyl phosphoramidate linkage; k = constrained ethyl (cEt); [5mC] = 5-methylcytosine; d = 2'-deoxy (DNA)
Legend:
[1] = tested on: human APOE RNA; test: Dose-dependent inhibition of human APOE RNA in differentiated SH-SY5Y cells, free uptake, 5 days (Example 5); type: cell-based; conditions: 5 days (Table 14)
Description: Modified oligonucleotides selected from the examples above were tested at various doses in differentiated SH-SY5Y cells. The modified oligonucleotides were tested in a series of experiments that had the same culture conditions.
Differentiated SH-SY5Y cells plated at a density of 10,000 cells per well were treated by free uptake with various concentrations of modified oligonucleotide as specified in the tables below. […] APOE RNA levels were measured using the human primer probe set RTS3073 (described herein above). APOE RNA levels were normalized to human PPIA. Human PPIA was amplified using human primer probe set mk_cycloA_2nd (described herein above). Results are presented as percent APOE RNA, relative to the amount of APOE RNA in untreated control cells (% UTC). The half maximal inhibitory concentration (IC50) of each modified oligonucleotide was calculated in GraphPad Prism 10 (GraphPad Software, San Diego, CA) and is also presented in the tables below.

[2] = tested on: human APOE RNA; test: Dose-dependent inhibition of human APOE RNA in HepG2 cells, electroporation, 50,000 cells per well, RT-PCR normalized to GAPDH (Example 4, Tables 8-10); type: cell-based; conditions: HepG2, electroporation, 24-hour treatment
Outline: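 Readout is percent APOE RNA versus untreated controls, measured by RT-PCR (primer probe set RTS3073) and normalized to human GAPDH. Modified oligonucleotides were delivered by electroporation at varying doses into HepG2 cells plated at 50,000 per well.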

[3] = tested on: human APOE RNA; test: Activity in APOE C57BL/6NTac-Apoeem7250 knock-in mice, single ICV bolus, 4 weeks (Example 10); type: in vivo; conditions: single ICV bolus 300 μg, 4 weeks post treatment, normalized to mouse Ppia
Outline: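 Human APOE RNA, quantified by real-time RT-PCR with RTS3073 and normalized to mouse Ppia, was read in cortical brain and spinal cord 4 weeks post dosing. Dosing was a single ICV bolus of 300 μg per knock-in mouse; values are % of PBS-treated animals.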

[4] = tested on: human APOE RNA; test: Activity in APOE C57BL/6NTac-Apoeem7250 knock-in mice, single ICV bolus, 8 weeks (Example 11); type: in vivo; conditions: single ICV bolus 300 μg, 8 weeks post treatment, normalized to mouse Ppia
Outline: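 Cortical and spinal cord human APOE RNA quantified by RT-qPCR 8 weeks after a single 300 μg ICV dose in knock-in mice, Ppia-normalized. Values are percent of levels in PBS-treated animals.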

[5] = tested on: human APOE RNA; test: Duration of action study in APOE C57BL/6NTac-Apoeem7250 knock-in mice (Example 16); type: in vivo; conditions: 300 μg ICV
Outline: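 Knock-in mice (2-4 per group) received a single ICV bolus of 300 μg oligonucleotide or PBS. At various timepoints, cortex and spinal cord human APOE RNA was measured by RT-qPCR (RTS3073), normalized to mouse Ppia and expressed as % of PBS control.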

Row | Substance | APOE RNA (% UTC) ([1]; 5 nM) | APOE RNA (% UTC) ([1]; 13 nM) | APOE RNA (% UTC) ([1]; 33 nM) | APOE RNA (% UTC) ([1]; 82 nM) | APOE RNA (% UTC) ([1]; 205 nM) | APOE RNA (% UTC) ([1]; 512 nM) | APOE RNA (% UTC) ([1]; 1,280 nM) | APOE RNA (% UTC) ([1]; 3,200 nM) | APOE RNA (% UTC) ([1]; 8,000 nM) | APOE RNA (% UTC) ([1]; 20,000 nM) | IC50 [1] [nM] | APOE RNA (% UTC) ([2]; 5 nM) | APOE RNA (% UTC) ([2]; 13 nM) | APOE RNA (% UTC) ([2]; 82 nM) | APOE RNA (% UTC) ([2]; 205 nM) | APOE RNA (% UTC) ([2]; 512 nM) | APOE RNA (% UTC) ([2]; 1,280 nM) | APOE RNA (% UTC) ([2]; 3,200 nM) | APOE RNA (% UTC) ([2]; 8,000 nM) | APOE RNA (% UTC) ([2]; 20,000 nM) | further results
1 | 1746804 (k[5mC]*kT*kT*dG[ms]dG[ms]dT[ms]dG[ms]dA[ms]dA[ms]dT*d[5mC]*dT*dT*dT*dA[ms]dT*dT[ms]kA*kA*kA; antisense) [Compound 1746804] | 114 | 117 | 120 | 97 | 84 | 82 | 61 | 48 | 32 | 18 | 2830 | 89 | 88 | 81 | 66 | 57 | 45 | 40 | 4 | 2 | APOE RNA (% UTC) ([2]; 33 nM): 80 % UTC; IC50 [2]: 680 nM; APOE RNA (% control) Cortex [3]: 51 % control and 46 % control; APOE RNA (% control) Spinal Cord [3]: 52 % control and 40 % control; APOE RNA (% control) Cortex [4]: 40 % control; APOE RNA (% control) Spinal Cord [4]: 25 % control; APOE RNA (% control) Cortex ([5]; 112 days post-dose): 37 % control; APOE RNA (% control) Cortex ([5]; 140 days post-dose): 60 % control; APOE RNA (% control) Spinal Cord ([5]; 112 days post-dose): 205 % control; APOE RNA (% control) Spinal Cord ([5]; 140 days post-dose): 207 % control
2 | 1746784 (k[5mC]*kT*kT*dG[ms]dG[ms]dT[ms]dG[ms]dA[ms]dA[ms]dT*d[5mC]*dT*dT*dT*dA[ms]dT*kT*kA*dA[ms]kA; antisense) [Compound 1746784] | 82 | 118 | 83 | 61 | 49 | 62 | 36 | 24 | 13 | 6 | 440 | 78 | 74 | 80 | 61 | 48 | 29 | 10 | 7 | 7 | IC50 [2]: 310 nM; APOE RNA (% control) Cortex [3]: 49 % control and 39 % control; APOE RNA (% control) Spinal Cord [3]: 26 % control; APOE RNA (% control) Cortex [4]: 38 % control; APOE RNA (% control) Spinal Cord [4]: 138 % control; APOE RNA (% control) Cortex ([5]; 112 days post-dose): 38 % control; APOE RNA (% control) Cortex ([5]; 140 days post-dose): 45 % control; APOE RNA (% control) Spinal Cord ([5]; 112 days post-dose): 24 % control; APOE RNA (% control) Spinal Cord ([5]; 140 days post-dose): 56 % control
